Earlier results in US20150127309A1, “Method To Translate Biodynamic Spectrograms Into High-Content Information” (Purdue Research Foundation, priority 2013, published 2015).

Legend:
[1] = ref [78]
three Raf isoforms = conditions: in serum; refs [75-77]

CCCS(=O)(=O)Nc1ccc(F)c(C(=O)c2c[nH]c3ncc(-c4ccc(Cl)cc4)cc23)c1F [PLX4032]
toxicity [1]: minimal toxicity | tolerated serum levels ([1]; serum): up to 50 μM | activity against Raf isoforms (three Raf isoforms): active against three Raf isoforms at nanomolar concentrations
